From PubChem BioAssay AID330 (DTP/NCI, 2004) come the findings set out here.

This test concerns P388 leukemia ip, CD2F1 mice, survival T/C. Briefly: NCI In Vivo Anticancer Drug Screen. Data for tumor model P388 Leukemia (intraperitoneal) in CD2F1 (CDF1) mice. The conditions noted are these: endpoint: median survival time, higher = longer survival. In short, it runs like this:
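Mice carrying the transplanted tumor received test compound or vehicle. Survival was recorded in each group, and the value is the treated-group measurement divided by that of the vehicle-treated control group.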

Where [1] appears, read: dose: 25.0 mg/kg/injection, schedule: Q01DX009 (ip), vehicle: Klucel (hydroxypropylcellulose) (HPC).
The mark [2] stands for this setting: dose: 100.0 mg/kg/injection, schedule: Q01DX009 (ip), vehicle: saline with Tween-80.
Where [3] appears, read: dose: 200.0 mg/kg/injection, schedule: Q01DX009 (ip), vehicle: saline with Tween-80.
[4] abbreviates: dose: 400.0 mg/kg/injection, schedule: Q01DX009 (ip), vehicle: saline with Tween-80.
Where [5] appears, read: dose: 60.0 mg/kg/injection, schedule: Q01DX005 (ip), vehicle: saline with Tween-80.
Where [6] appears, read: dose: 120.0 mg/kg/injection, schedule: Q01DX005 (ip), vehicle: saline with Tween-80.
Setting [7] is: dose: 240.0 mg/kg/injection, schedule: Q01DX005 (ip), vehicle: saline with Tween-80.
[8] abbreviates: dose: 50.0 mg/kg/injection, schedule: Q01DX005 (ip), vehicle: Klucel (hydroxypropylcellulose) (HPC).
[9] abbreviates: dose: 100.0 mg/kg/injection, schedule: Q01DX005 (ip), vehicle: Klucel (hydroxypropylcellulose) (HPC).
The mark [10] stands for this setting: dose: 200.0 mg/kg/injection, schedule: Q01DX005 (ip), vehicle: Klucel (hydroxypropylcellulose) (HPC).
Setting [11] is: dose: 50.0 mg/kg/injection, schedule: Q01DX009 (ip), vehicle: saline.
Where [12] appears, read: dose: 100.0 mg/kg/injection, schedule: Q01DX009 (ip), vehicle: saline.
[13] abbreviates: dose: 200.0 mg/kg/injection, schedule: Q01DX009 (ip), vehicle: saline.
Where [14] appears, read: dose: 25.0 mg/kg/injection, schedule: Q01DX009 (ip), vehicle: saline with Tween-80.
The mark [15] stands for this setting: dose: 60.0 mg/kg/injection, schedule: Q01DX005 (ip), vehicle: Klucel (hydroxypropylcellulose) (HPC).
Setting [16] is: dose: 120.0 mg/kg/injection, schedule: Q01DX005 (ip), vehicle: Klucel (hydroxypropylcellulose) (HPC).
[17] abbreviates: dose: 240.0 mg/kg/injection, schedule: Q01DX005 (ip), vehicle: Klucel (hydroxypropylcellulose) (HPC).
[18] abbreviates: dose: 50.0 mg/kg/injection, schedule: Q01DX009 (ip), vehicle: saline with Tween-80.

SMILES strings stand for the structures. Several values for one entry are separate records, joined by “and”; a condition that tells them apart may be missing. Equal values may be shown once. Inconclusive results and toxic doses are left out.

As for `O=C(Nc1nccs1)Nc1ccccc1C(F)(F)F`, the T/C was 115 % of control under setting [1]; 108 % of control (dose: 50.0 mg/kg/injection, schedule: Q01DX009 (ip), vehicle: Klucel (hydroxypropylcellulose) (HPC)); 106 % of control (dose: 100.0 mg/kg/injection, schedule: Q01DX009 (ip), vehicle: Klucel (hydroxypropylcellulose) (HPC)); 92 % of control under setting [2]; 111 % of control (dose: 200.0 mg/kg/injection, schedule: Q01DX009 (ip), vehicle: Klucel (hydroxypropylcellulose) (HPC)); 90 % of control under setting [3]. Besides, the T/C under setting [4] was 88 % of control.
For `CC(/C=C/c1ccc(Cl)cc1)=N\NC(N)=O`, the T/C under setting [5] is 94 % of control, the T/C under setting [6] is 99 % of control and the T/C under setting [7] is 99 % of control.
For the compound `CCCNS(=O)(=O)c1ccccc1C(=O)NC1CCCCC1`, the T/C was 103 % of control under setting [8], 93 % of control under setting [9] and 94 % of control under setting [10].
Take `NCCSCC(N)C(=O)O` (stereo unspecified): the T/C reads like this: (dose: 25.0 mg/kg/injection, schedule: Q01DX009 (ip), vehicle: saline) 102 % of control; under setting [11], 103 % of control; under setting [12], 99 % of control; under setting [13], 109 % of control.
Turning to `COc1cc(C=O)c(C=O)cc1OC`, where the note is “dose: 25.0 mg/kg/injection, schedule: Q04DX003 (ip), vehicle: saline with Tween-80”, the T/C is 100 % of control.
Take `Cc1cc(N(CCCl)CCCl)ccc1C=Nc1ccc(F)cc1`: the T/C is 104 % of control (dose: 100.0 mg/kg/injection, schedule: Q04DX003 (ip), vehicle: saline with Tween-80); 155 % of control under setting [3]; 109 % of control (dose: 264.0 mg/kg/injection, schedule: Q04DX003 (ip), vehicle: saline with Tween-80); 165 % of control under setting [4]; 150 % of control (dose: 400.0 mg/kg/injection, schedule: Q04DX003 (ip), vehicle: saline with Tween-80); 168 % of control (dose: 600.0 mg/kg/injection, schedule: Q04DX003 (ip), vehicle: saline with Tween-80).
On to `Cc1cc(C)cc(C(=O)NC(c2ccncc2)C2N=C(c3ccccc3)OC2=O)c1` (stereo unspecified), for which the T/C runs as follows: under setting [5], 98 % of control; under setting [6], 94 % of control; under setting [7], 94 % of control.
For `O=C1C2CCC(N1c1ccc(F)cc1)n1c(=O)n(-c3ccccc3)c(=O)n12` (stereo unspecified), the T/C is 104 % of control (dose: 100.0 mg/kg/injection, schedule: Q01DX001 (ip), vehicle: Klucel (hydroxypropylcellulose) (HPC)); 94 % of control (dose: 200.0 mg/kg/injection, schedule: Q01DX001 (ip), vehicle: Klucel (hydroxypropylcellulose) (HPC)); 100 % of control (dose: 400.0 mg/kg/injection, schedule: Q01DX001 (ip), vehicle: Klucel (hydroxypropylcellulose) (HPC)).
For `CN1CSC(=S)NCCNC(=S)SC1`, the T/C was 87 % of control under setting [8], 94 % of control under setting [9] and 87 % of control under setting [10].
For the compound `COC1/C=C\OC2(C)Oc3c(C)c(O)c4c(c3C2=O)C(=O)C=C(NC(=O)C(C)=C/C=C\C(C)C(=O)C(C)C2OC(C)(C)OC(C1C)C2C)C4=O` (stereo unspecified), the T/C was 100 % of control (dose: 6.25 mg/kg/injection, schedule: Q04DX003 (ip), vehicle: other); 106 % of control and 110 % of control (dose: 12.5 mg/kg/injection, schedule: Q04DX003 (ip), vehicle: distilled water + Tween-80); 107 % of control (dose: 12.5 mg/kg/injection, schedule: Q04DX003 (ip), vehicle: other); 101 % of control and 121 % of control (dose: 25.0 mg/kg/injection, schedule: Q04DX003 (ip), vehicle: distilled water + Tween-80); 156 % of control (dose: 25.0 mg/kg/injection, schedule: Q04DX003 (ip), vehicle: other); 91 % of control and 95 % of control (dose: 50.0 mg/kg/injection, schedule: Q04DX003 (ip), vehicle: distilled water + Tween-80). Moreover, the T/C was 108 % of control (dose: 50.0 mg/kg/injection, schedule: Q04DX003 (ip), vehicle: other); 103 % of control and 97 % of control (dose: 100.0 mg/kg/injection, schedule: Q04DX003 (ip), vehicle: distilled water + Tween-80); 118 % of control (dose: 100.0 mg/kg/injection, schedule: Q04DX003 (ip), vehicle: other); 113 % of control and 117 % of control (dose: 200.0 mg/kg/injection, schedule: Q04DX003 (ip), vehicle: distilled water + Tween-80).
With `N#C/C=C1/C=CC(O)CC1OC1OC(CO)C(O)C(O)C1O` (stereo unspecified), the T/C reads like this: (dose: 3.0 mg/kg/injection, schedule: Q01DX009 (ip), vehicle: saline) 102 % of control; (dose: 6.0 mg/kg/injection, schedule: Q01DX009 (ip), vehicle: saline) 101 % of control; (dose: 12.0 mg/kg/injection, schedule: Q01DX009 (ip), vehicle: saline) 102 % of control; (dose: 24.0 mg/kg/injection, schedule: Q01DX009 (ip), vehicle: saline) 104 % of control.
For the compound `NC(=O)Cc1noc2ccccc12`, under setting [4], the T/C is 106 % of control and 88 % of control.
Turning to `Cn1cnc([N+](=O)[O-])c1Sc1nc(N)nc2nc[nH]c12`, the T/C by setting is: under setting [14], 109 % of control; (dose: 50.0 mg/kg/injection, schedule: Q01DX009 (ip), vehicle: saline sonified) 109 % of control; (dose: 100.0 mg/kg/injection, schedule: Q04DX003 (ip), vehicle: Klucel (hydroxypropylcellulose) (HPC)) 122 % of control.
`CCSC(=Nc1nc2ccc([N+](=O)[O-])cc2s1)SCC`: the T/C by setting is: (dose: 6.25 mg/kg/injection, schedule: Q01DX009 (ip), vehicle: Klucel (hydroxypropylcellulose) (HPC)) 104 % of control; (dose: 12.5 mg/kg/injection, schedule: Q01DX009 (ip), vehicle: Klucel (hydroxypropylcellulose) (HPC)) 111 % of control; under setting [1], 98 % of control.
As to `COC(=O)c1c(O)c2c(c3c1OC(C)(C)CC3)OC(C)(C)CC2`, the T/C reads like this: under setting [15], 93 % of control; under setting [5], 90 % of control; under setting [16], 92 % of control; under setting [6], 91 % of control; under setting [17], 90 % of control.
On to `Cc1ccc(C2OC(N)=C(O)C2=O)cc1` (stereo unspecified), for which the T/C runs as follows: under setting [15], 107 % of control; under setting [16], 100 % of control; under setting [17], 93 % of control.
Turning to `CCC(=O)Nc1ccc(C(=O)C(C)O[N+](=O)[O-])cc1` (stereo unspecified), the T/C under setting [14] is 98 % of control, the T/C under setting [18] is 99 % of control and the T/C under setting [2] is 100 % of control.
Consider `COc1cc(=O)[nH]c(-c2ccccc2)c1OC`, for which the T/C was 99 % of control under setting [5], 99 % of control under setting [6] and 99 % of control under setting [7].
Turning to `N#Cc1cc(Br)ccc1[N+](=O)[O-]`, the T/C was 103 % of control (dose: 6.25 mg/kg/injection, schedule: Q01DX009 (ip), vehicle: saline); 101 % of control (dose: 12.5 mg/kg/injection, schedule: Q01DX009 (ip), vehicle: saline); 94 % of control under setting [11]; 90 % of control under setting [12]; 99 % of control under setting [13].
Regarding `O=c1c2ccccc2nc2n1CCc1c-2[nH]c2ccccc12`, the T/C (dose: 3.75 mg/kg/injection, schedule: Q01DX009 (ip), vehicle: saline with Tween-80) is 93 % of control; the T/C (dose: 7.5 mg/kg/injection, schedule: Q01DX009 (ip), vehicle: saline with Tween-80) was 98 % of control; the T/C (dose: 15.0 mg/kg/injection, schedule: Q01DX009 (ip), vehicle: saline with Tween-80) was 93 % of control.
For `N#CN(Cc1ccccc1)C(c1ccccc1)(c1ccccc1)c1ccccc1.[I][Sn]([c]1ccccc1)([c]1ccccc1)[c]1ccccc1`, the T/C is, setting by setting: (dose: 3.12 mg/kg/injection, schedule: Q01DX005 (ip), vehicle: saline with Tween-80) 98 % of control; (dose: 6.25 mg/kg/injection, schedule: Q01DX005 (ip), vehicle: saline with Tween-80) 92 % of control.
With `O=C(C#Cc1ccccc1)c1ccccc1`, the T/C is 122 % of control and 124 % of control (dose: 12.5 mg/kg/injection, schedule: Q01DX009 (ip), vehicle: saline with Tween-80); 98 % of control under setting [14]; 121 % of control under setting [18].
